Measured values published in patent US12338221B2, “Process for preparation of sulfentrazone with tank-mix compatibility” (UPL LTD, priority 2021, dated 2025).

Experiment: Tank mix compatibility test with other pesticide active compound
Type: physicochemical
Conditions: FIG. 2 and FIG. 3
Procedure: Samples prepared according to Example 6 and Example 7 were tested for compatibility with clomazone EC formulation (UPSTAGE®). The tank mix compatibility was checked as per the dosages mentioned below: [table] Method: Total 250 ml of spray dilution solution was prepared using above mentioned composition wherein 7 ml of each sample 1 and sample 2 were mixed with 10 ml of UPSTAGE® and mixture was diluted with water.

| Structure (SMILES) | Physical incompatibilities when mixed with a clomazone EC formulation |
| --- | --- |
| Cc1nn(-c2cc(NS(C)(=O)=O)c(Cl)cc2Cl)c(=O)n1C(F)F [sulfentrazone prepared in accordance with the present disclo] [N[2,4-dichloro-5-[4-(difluoromethyl)-4,5-dihydro-3-methyl-5-oxo-1H-1,2,4-triazol-1-yl]phenyl]methanesulfonamide] | did not result in any physical incompatibilities |
| Cc1nn(-c2cc(NS(C)(=O)=O)c(Cl)cc2Cl)c(=O)n1C(F)F [conventionally prepared sulfentrazone, N[2,4-dichloro-5-[4-(difluoromethyl)-4,5-dihydro-3-methyl-5-oxo-1H-1,2,4-triazol-1-yl]phenyl]methanesulfonamide] | moderate to severe physical incompatibilities |
